Laboratory results taken from patent US4812312A, “Liposome-incorporated nystatin” (Board of Regents of the University of Texas System, priority 1987, dated 1989).
Where two headings read alike, the source gives them in different places.

Legend:
HTLV-III/LAV = details: cell line H9; cited from earlier work
[1] = Solubility of nystatin / polyenes; format: physicochemical
[2] = tested on: Candida albicans strain 336; assay: In vitro MIC, twofold serial dilution, C. albicans strain 336 (Table 5); format: cell-based
Method: (§1) Organism, culture, and assay of antifungal activity in vitro. All strains of yeast were grown overnight at 37° C. on Sabouraud dextrose agar (SDA) plates. All molds were grown at 30° C. on SDA for 3 to 10 days prior to collection of spores. The inoculum was then processed for susceptibility testing as described earlier (Hopfer et al., Antimicrob. Agents Chemotherap., Vol. 25, pp 387-389 (1984)). A twofold serial dilution method (Shadomy et al., In E. H. Lennette, et al., (eds.) Manual of Clinical Microbiology, 3rd ed. American Society for Microbiology, Washington, D.C. , pp. 647-653 (1980)) adapted to microtiter plates was used to determine the minimal inhibitory concentration (MIC) of the drugs. The MIC of L-Nys were compared with that of free-Nys. Empty liposomes and 5% dimethylsulfoxide (DMSO) were used as controls.
The antifungal activity was maintained after Nys was entrapped in liposomes with or without sterols.

Allescheria = assay: In vitro antifungal spectrum, MIC (Table 6); format: cell-based
Method: as §1
(§2) The L-Nys was prepared and tested generally as described above in this and earlier examples, except for the various new fungal varieties. […] (Hopfer et al., […], Vol. 25, No. 3, pp. 387-389 (1984)).

Alternaria = assay: In vitro antifungal spectrum, MIC (Table 6); format: cell-based
Method: as §1, §2

Aspergillus flavus = assay: In vitro antifungal spectrum, MIC (Table 6); format: cell-based
Method: as §1, §2

Aspergillus fumigatus = assay: In vitro antifungal spectrum, MIC (Table 6); format: cell-based
Method: as §1, §2

Aspergillus niger = assay: In vitro antifungal spectrum, MIC (Table 6); format: cell-based
Method: as §1, §2

[3] = tested on: Aspergillus not fumigatus; assay: In vitro antifungal spectrum, MIC (Table 6); format: cell-based
Method: as §1, §2

Candida albicans [4] = assay: In vitro antifungal spectrum, MIC (Table 6); format: cell-based
Method: as §1, §2

Candida paratropicalis = assay: In vitro antifungal spectrum, MIC (Table 6); format: cell-based
Method: as §1, §2

Candida tropicalis = assay: In vitro antifungal spectrum, MIC (Table 6); format: cell-based
Method: as §1, §2

Cryptococcus neoformans = assay: In vitro antifungal spectrum, MIC (Table 6); format: cell-based
Method: as §1, §2

Curvularia = assay: In vitro antifungal spectrum, MIC (Table 6); format: cell-based
Method: as §1, §2

Fusarium = assay: In vitro antifungal spectrum, MIC (Table 6); format: cell-based
Method: as §1, §2

Mucor = assay: In vitro antifungal spectrum, MIC (Table 6); format: cell-based
Method: as §1, §2

Rhizopus = assay: In vitro antifungal spectrum, MIC (Table 6); format: cell-based
Method: as §1, §2

Torulopsis globrata = assay: In vitro antifungal spectrum, MIC (Table 6); format: cell-based
Method: as §1, §2

human RBCs = assay: Lysis of human red blood cells (hemoglobin release at 550 nm); format: cell-based; details: 37 °C, 45 min
Method: Lysis of human red blood cells (RBCs) was quantitated by measuring the release of hemoglobin in the supernatants at 550 nm, as described previously (Mehta et al., Biochem. Biophys, Acta., Vol. 770, pp. 230-234 (1984)). Various doses of L-Nys were incubated with fresh washed human RBCs at 37° C for 45 min. Free-Nys, dissolved in dimethyl formamide (DMFA), was added to the assay at a 3% final solvent concentration. Appropriate solvent controls, empty liposomes, and empty liposomes plus free-drug were also included in each experiment. Release of hemoglobin by hypotonic lysis of the same number of human RBCs by water was taken as 100% positive control, while cells treated with PBS were taken as negative controls.

mice = assay: In vivo toxicology in Hale-Stoner mice
Method: Groups of eight Hale-Stoner mice (6-8 weeks old, body wt=20-25 g; Univ. of TX Science Park, Bastrop, TX) each were injected with various doses of free-Nys (in 5% DMSO diluted with saline), L-Nys, empty liposomes or 5% DMSO as control. […] After 45 days, the surviving animals were sacrificed and blood and tissue samples were obtained. Blood biochemistry examination included blood urea nitrogen, alkaline phosphatase, and lactic dehydrogenase (LDH). The organs (liver, spleen, lungs and kidneys) were obtained and preserved in 10% formalin. Tissue slices were processed for hematoxylin-eosin and Gomori methenamine silver stains.

Candida albicans [5] = assay: Single-dose therapy with free Nys of disseminated C. albicans infection in mice; format: in vivo, Hale-Stoner mice; details: single iv dose, 1 mg to 4 mg/kg
Method: (§3) Hale-Stoner mice, six to eight weeks old (body weight, 20-25 g) were purchased from The University of Texas Science Park (Bastrop, TX). The mice (eight per group) were injected with 0.2 ml of C. albicans cell suspension containing 7×10^5 colony-forming units (cfu) via the tail vein. This concentration of cells was consistent in producing a disseminated infection after 48 hr, affecting liver, spleen, lungs, and kidneys primarily. Infected mice were treated with increasing doses of free-Nys, ranging from 1 mg to 4 mg/kg body weight (FIG. 5).

Candida albicans [6] = assay: Single-dose therapy with free Nys or L-Nys of disseminated C. albicans infection in mice; format: in vivo, Hale-Stoner mice; details: 4 mg/kg
Method: as §3
Mice were infected with C. albicans as described in Example 9. Groups of eight mice each were injected (iv) with various doses of free-Nys, L-Nys, empty liposomes or 5% DMSO two days after the injection of C. albicans. The survival of the animals in each group was noted and compared with that of the untreated control group.

Candida albicans [7] = assay: Multiple-dose therapy with Nys or L-Nys of disseminated C. albicans infection in mice; format: in vivo, Hale-Stoner mice
Method: as §3
Two days after the injection of C. albicans (iv), (as described in Examples 9 and 10), the mice were treated with different doses of free-Nys, L-Nys, empty liposomes or 5% DMSO control for five consecutive days. The multiple-dose groups were also compared with appropriate cumulative single doses (see Example 10). The animals were then observed for survival or any toxicity pertaining to the treatment with five daily doses.
These experiments were terminated at 60 days, and blood and tissue samples were collected from the surviving animals after sacrifice.
Survival curves were calculated by the method of Kaplan and Meier (J. Amer. Stat. Assoc., Vol. 53, pp 457-462 […]) and tests for differences in survival distributions were based on a generalized Wilcoxon test (Gehan., Biometrika, Vol. 52, pp 203-223 (1965)). […]

[8] = cited from earlier work
[9] = orally and topically; cited from earlier work

COC(=O)[C@H]1[C@@H]2C[C@@H](O[C@@H]3O[C@H](C)[C@@H](O)[C@H](N)[C@@H]3O)/C=C/C=C/C=C/C=C/C=C/C=C/C=C/[C@H](C)[C@@H](O)[C@@H](C)[C@H](C)OC(=O)C[C@H](O)C[C@H](O)CC[C@@H](O)[C@H](O)C[C@H](O)C[C@](O)(C[C@@H]1O)O2 [amphotericin B methyl ester ascorbate]
replication of HTLV-III/LAV in H9 cells (HTLV-III/LAV): inhibited

C[C@@H]1[C@H](O)[C@@H](C)/C=C/C=C/C=C/C=C/C=C/C=C/C=C/[C@H](O[C@@H]2O[C@H](C)[C@@H](O)[C@H](N)[C@@H]2O)C[C@@H]2O[C@](O)(C[C@@H](O)C[C@@H](O)[C@H](O)CC[C@@H](O)C[C@@H](O)CC(=O)O[C@H]1C)C[C@H](O)[C@H]2C(=O)O [amphotericin B]
replication of HTLV-III/LAV in H9 cells (HTLV-III/LAV): inhibited

C[C@@H]1[C@H](O)[C@@H](C)/C=C/C=C/CC/C=C/C=C/C=C/C=C/C(O[C@H]2O[C@H](C)[C@@H](O)[C@H](N)[C@@H]2O)CC2O[C@](O)(CC(O)C(O)CCC(O)CC(O)CC(O)CC(=O)O[C@H]1C)CC(O)C2C(=O)O (some centres unmarked) [free-Nys, nystatin]
soluble in DMFA ([1]; N,N-dimethylformamide): 15 mg/mL
soluble in DMSO ([1]; dimethyl sulfoxide): 40 mg/mL
soluble in methanol ([1]; methanol): 1 mg/mL
Minimal Inhibitory Concentration [2]: 1.0 µg/mL
Minimal Inhibitory Concentration (Allescheria): 16 µg/mL
Minimal Inhibitory Concentration (Alternaria): 2 µg/mL
Minimal Inhibitory Concentration (Aspergillus flavus): 1 µg/mL
Minimal Inhibitory Concentration (Aspergillus fumigatus): 8 µg/mL
Minimal Inhibitory Concentration (Aspergillus niger): 4 µg/mL
Minimal Inhibitory Concentration ([3]; Aspergillus not fumigatus #1): 4 µg/mL
Minimal Inhibitory Concentration ([3]; Aspergillus not fumigatus #2): 16 µg/mL
Minimal Inhibitory Concentration (Candida albicans [4]; C. albicans #1): 2 µg/mL
Minimal Inhibitory Concentration (Candida albicans [4]; C. albicans #2): 2 µg/mL
Minimal Inhibitory Concentration (Candida albicans [4]; C. albicans #3): 4 µg/mL
Minimal Inhibitory Concentration (Candida albicans [4]; C. albicans #4): 4 µg/mL
Minimal Inhibitory Concentration (Candida albicans [4]; C. albicans #5): 8 µg/mL
Minimal Inhibitory Concentration (Candida albicans [4]; C. albicans #6): 4 µg/mL
Minimal Inhibitory Concentration (Candida albicans [4]; C. albicans #7): 8 µg/mL
Minimal Inhibitory Concentration (Candida albicans [4]; C. albicans #8): 8 µg/mL
Minimal Inhibitory Concentration (Candida albicans [4]; C. albicans #9): 4 µg/mL
Minimal Inhibitory Concentration (Candida albicans [4]; C. albicans #10): 4 µg/mL
Minimal Inhibitory Concentration (Candida paratropicalis; C. paratropicalis #1): 2 µg/mL
Minimal Inhibitory Concentration (Candida paratropicalis; C. paratropicalis #2): 2 µg/mL
Minimal Inhibitory Concentration (Candida paratropicalis; C. paratropicalis #3): 4 µg/mL
Minimal Inhibitory Concentration (Candida paratropicalis; C. paratropicalis #4): 4 µg/mL
Minimal Inhibitory Concentration (Candida tropicalis; C. tropicalis #1): 16 µg/mL
Minimal Inhibitory Concentration (Candida tropicalis; C. tropicalis #2): 8 µg/mL
Minimal Inhibitory Concentration (Candida tropicalis; C. tropicalis #3): 4 µg/mL
Minimal Inhibitory Concentration (Candida tropicalis; C. tropicalis #4): 4 µg/mL
Minimal Inhibitory Concentration (Cryptococcus neoformans; Cryptococcus neoformans #1): 4 µg/mL
Minimal Inhibitory Concentration (Cryptococcus neoformans; Cryptococcus neoformans #2): 4 µg/mL
Minimal Inhibitory Concentration (Curvularia): 2 µg/mL
Minimal Inhibitory Concentration (Fusarium): 62.5 µg/mL
Minimal Inhibitory Concentration (Mucor): 2 µg/mL
Minimal Inhibitory Concentration (Rhizopus): 4 µg/mL
Minimal Inhibitory Concentration (Torulopsis globrata; Torulopsis globrata #1): 4 µg/mL
Minimal Inhibitory Concentration (Torulopsis globrata; Torulopsis globrata #2): 2 µg/mL
Minimal Inhibitory Concentration (Torulopsis globrata; Torulopsis globrata #3): 4 µg/mL
Minimal Inhibitory Concentration (Torulopsis globrata; Torulopsis globrata #4): 4 µg/mL
lysis of human RBCs (human RBCs; 120 ug/ml): 100%
concentration range with linear increase in lysis of human RBCs (human RBCs): 60 to 120 µg/mL
mortality (mice; 4.4 mg/kg, mice, iv): all the animals died immediately
toxicity and efficacy when administered intravenously (mice; intravenous, summary): toxic and noneffective when administered intravenously
maximal tolerated dose (MTD) (mice; mice, iv, per body weight): 4 mg/kg
survival of infected mice versus untreated control (Candida albicans [5]): None of the doses tested improved the survival of infected mice
therapeutic effect in vivo (Candida albicans [6]): no therapeutic effect in vivo
survival time (Candida albicans [7]; single or multiple doses): 10 days
survival of infected mice (Candida albicans [7]; single or multiple doses (MTD, five consecutive days)): died as rapidly as the untreated controls
solubility in water ([8]; listed as Nys): substantially water-insoluble
solubility in water ([8]; listed as Nystatin): aqueous insolubility
tolerability [9]: Tolerated well both orally and topically
